Reference: patent publication US20220107328A1, “METHODS OF TREATING LIVER DISEASES” (Camp4 Therapeutics Corporation, priority 2018, published 2022)

Columns and labels:
PNPLA3 mRNA [1] = experiment: qRT-PCR of PNPLA3 mRNA in compound-treated primary human hepatocytes; conditions: for Relative PNPLA3 mRNA levels: mTOR pathway inhibitors, 10 μM, human hepatocytes, qRT-PCR, mean of three replicates ± standard deviation; for Primary Hepatocytes 4178 PNPLA3 (fold change in mRNA expression): donor 4178, 3 μM; for Primary Hepatocytes 4178 PNPLA3 (fold change in mRNA expression) / Primary Hepatocytes 4282 PNPLA3 (fold change in mRNA expression): relative to GUSB; for Primary Hepatocytes 4282 PNPLA3 (fold change in mRNA expression): donor 4282, 3 μM; for mrna remaining at 10 µM / mrna remaining at 1 µM: Homo sapiens, Hepatocyte
PCSK9 mRNA = experiment: qRT-PCR of PCSK9 mRNA in primary hepatocytes; type: cell-based, human; conditions: donor 4178, 3 μM, relative to GUSB
PNPLA3 mRNA [2] = experiment: qRT-PCR of PNPLA3 mRNA in human primary hepatic stellate cells; type: cell-based; conditions: for Primary Stellate cells PNPLA3 (fold change in mRNA expression): 3 μM, relative to GAPDH; for Relative PNPLA3 mRNA levels RQ: hepatic stellate cells
COL1A1 mRNA = experiment: qRT-PCR of COL1A1 mRNA in human primary hepatic stellate cells; type: cell-based; conditions: for Primary Stellate cells COL1A1 (fold change in mRNA expression): 3 μM, relative to GAPDH; for Relative COL1A1 mRNA levels RQ: hepatic stellate cells
PNPLA3 mRNA [3] = experiment: qRT-PCR of PNPLA3 mRNA in compound-treated mouse hepatocytes; type: cell-based; conditions: for Relative PNPLA3 mRNA levels: mouse hepatocytes, 1 μM, normalized to ACTB
Protocol: Analysis of the fold changes in expression as measured by qRT-PCR were performed using the technique below. The control was DMSO, and the treatment was the selected compound (CPD). The internal control was GAPDH or B-Actin (or otherwise indicated), and the gene of interest is the target. First, the averages of the 4 conditions were calculated for normalization: DMSO:GAPDH, DMSO:Target, CPD: GAPDH, and CPD:Target. Next, the ΔCT of both control and treatment were calculated to normalize to internal control (GAPDH) using (DMSO:Target)−(DMSO:GAPDH)=ΔCT control and (CPD:Target)−(CPD: GAPDH)=ΔCT experimental. Then, the ΔΔCT was calculated by ΔCT experimental−ΔCT control. The Expression Fold Change (or Relative Quantification, abbreviated as RQ) was calculated by 2−(ΔΔCT) (2-fold expression change was shown by RNA-Seq results provided herein).
Compounds were tested at concentrations ranging from 0.01 μM to 50 μM. […] PNPLA3 levels were normalized to the level of a house keeping gene ACTB.

PNPLA3 expression = experiment: RNA-seq of compound-treated primary human hepatocytes; type: cell-based; conditions: PNPLA3 expression, RNA-seq
Protocol: Cryopreserved hepatocytes were cultured in plating media for 16 hours, transferred to maintenance media for 4 hours. Cultured on serum-free media for 2 hours, then a compound was added. The hepatocytes were maintained on the serum-free media for 16 hours prior to gene expression analysis.
Human hepatocytes cultured as described above were plated in 24-well format, adding 375,000 cells per well in a volume of 500 μl plating medium. Four hours before treatment, cells were washed with PBS and the medium was changed to either: fresh maintenance medium (complete) or modified maintenance medium.
Compound stocks were prepared at 1000× final concentration and added in a 2-step dilution to the medium to reduce risk of a compound precipitating out of solution when added to the cells, and to ensure reasonable pipetting volumes. One at a time, each compound was first diluted 10-fold in warm (about 37° C.) modified maintenance medium (initial dilution=ID), mixed by vortexing, and the ID was diluted 100-fold into the cell culture (e.g. 5.1 μl into 1 well of a 24-well plate containing 0.5 mL medium). The plate was mixed by carefully swirling and after all wells were treated and returned to the incubator overnight. If desired, separate plates/wells were treated with vehicle-only controls and/or positive controls. If using multi-well plates, controls were included on each plate. After about 18 hours, cells were harvested for further analysis, e.g., ChIP-seq, RNA-seq, ATAC-seq, etc.
The expression level of each gene was quantified with normalized FPKM (fragments per kilobase of exon per million mapped fragments). The differentially expressed genes were called using Cuffdiff v2.2.1 with q value<0.01 and log2 fold change>=1 or <=−1.
To identify small molecules that modulate PNPLA3, primary human hepatocytes were prepared as a monoculture, and at least one small molecule compound was applied to the cells.
RNA-seq was performed to determine the effects of the compounds on PNPLA3 expression in hepatocytes. Fold change was calculated by dividing the level of expression in the cell system that had been perturbed by the level of expression in an unperturbed system. Changes in expression having a p-value≤0.05 were considered significant.

Q: For `COc1ccc(-c2ccc3c(N4CCOC[C@@H]4C)nc(N4CCOC[C@@H]4C)nc3n2)cc1CO` [AZD-8055], which “Relative PNPLA3 mRNA levels” value (PNPLA3 mRNA [1]) is on record?
A: 0.52 ± 0.16

Q: What about the “Primary Hepatocytes 4178 PCSK9 (fold change in mRNA expression)” value (PCSK9 mRNA) of the same compound?
A: 0.68

Q: And the “Primary Stellate cells PNPLA3 (fold change in mRNA expression)” value (PNPLA3 mRNA [2])?
A: 0.36

Q: And the “Relative PNPLA3 mRNA levels RQ” value (PNPLA3 mRNA [2]; 0.01 μM)?
A: 0.38

Q: And the “Relative PNPLA3 mRNA levels RQ” value (PNPLA3 mRNA [2]; 0.1 μM)?
A: 0.44

Q: And the “Relative PNPLA3 mRNA levels RQ” value (PNPLA3 mRNA [2]; 1 μM)?
A: 0.45

Q: What about the “Relative PNPLA3 mRNA levels RQ” value (PNPLA3 mRNA [2]; 10 μM) of the same compound?
A: 0.39

Q: And the “Primary Stellate cells COL1A1 (fold change in mRNA expression)” value (COL1A1 mRNA)?
A: 0.46

Q: What about the “Relative COL1A1 mRNA levels RQ” value (COL1A1 mRNA; 0.01 μM) of the same compound?
A: 0.71

Q: And the “Relative COL1A1 mRNA levels RQ” value (COL1A1 mRNA; 0.1 μM)?
A: 0.58

Q: What about the “Relative COL1A1 mRNA levels RQ” value (COL1A1 mRNA; 1 μM) of the same compound?
A: 0.35

Q: What about the “Relative COL1A1 mRNA levels RQ” value (COL1A1 mRNA; 10 μM) of the same compound?
A: 0.27

Q: What about the “Relative PNPLA3 mRNA levels” value (PNPLA3 mRNA [3]) of the same compound?
A: 0.21 ± 0.11

Q: Which “Fold change (Log 2) vs untreated” value (PNPLA3 expression) does the source give for `COc1nc(N)nc2c1ncn2[C@@H]1O[C@H](COP(=O)(N[C@@H](C)C(=O)OCC(C)(C)C)Oc2cccc3ccccc23)[C@@H](O)[C@@]1(C)O` (stereo partly drawn) [BMS-986094] here?
A: −0.69

Q: For `CCNC(=O)Nc1ccc(-c2nc(N3CCOC[C@@H]3C)c3c(n2)C(C)(C)S(=O)(=O)C3)cc1` [CZ415], which “Primary Hepatocytes 4178 PNPLA3 (fold change in mRNA expression)” value (PNPLA3 mRNA [1]) is on record?
A: 0.60

Q: And the “Primary Hepatocytes 4282 PNPLA3 (fold change in mRNA expression)” value (PNPLA3 mRNA [1])?
A: 0.70

Q: And the “Relative PNPLA3 mRNA levels” value (PNPLA3 mRNA [1])?
A: 0.62 ± 0.07

Q: And the “Primary Hepatocytes 4178 PCSK9 (fold change in mRNA expression)” value (PCSK9 mRNA)?
A: 0.66

Q: And the “Primary Stellate cells PNPLA3 (fold change in mRNA expression)” value (PNPLA3 mRNA [2])?
A: 0.37

Q: What about the “Relative PNPLA3 mRNA levels RQ” value (PNPLA3 mRNA [2]; 0.01 μM) of the same compound?
A: 0.87

Q: And the “Relative PNPLA3 mRNA levels RQ” value (PNPLA3 mRNA [2]; 0.1 μM)?
A: 0.47

Q: What about the “Relative PNPLA3 mRNA levels RQ” value (PNPLA3 mRNA [2]; 1 μM) of the same compound?
A: 0.31

Q: What about the “Relative PNPLA3 mRNA levels RQ” value (PNPLA3 mRNA [2]; 10 μM) of the same compound?
A: 0.35

Q: What about the “Primary Stellate cells COL1A1 (fold change in mRNA expression)” value (COL1A1 mRNA) of the same compound?
A: 0.59

Q: And the “Relative COL1A1 mRNA levels RQ” value (COL1A1 mRNA; 0.01 μM)?
A: 1.01

Q: And the “Relative COL1A1 mRNA levels RQ” value (COL1A1 mRNA; 0.1 μM)?
A: 0.86

Q: And the “Relative COL1A1 mRNA levels RQ” value (COL1A1 mRNA; 1 μM)?
A: 0.28

Q: And the “Relative COL1A1 mRNA levels RQ” value (COL1A1 mRNA; 10 μM)?
A: 0.27

Q: What about the “Relative PNPLA3 mRNA levels” value (PNPLA3 mRNA [3]) of the same compound?
A: 0.20 ± 0.11

Q: What does the source list for `CO[C@H]1C[C@@H]2CC[C@@H](C)[C@@](O)(O2)C(=O)C(=O)N2CCCC[C@H]2C(=O)O[C@H]([C@H](C)C[C@@H]2CC[C@@H](OCCO)[C@H](OC)C2)CC(=O)[C@H](C)/C=C(\C)[C@@H](O)[C@@H](OC)C(=O)[C@H](C)C[C@H](C)/C=C/C=C/C=C/1C` [Everolimus]?
A: Primary Hepatocytes 4178 PNPLA3 (fold change in mRNA expression) (PNPLA3 mRNA [1]): 0.60; Primary Hepatocytes 4282 PNPLA3 (fold change in mRNA expression) (PNPLA3 mRNA [1]): 1.00; Relative PNPLA3 mRNA levels (PNPLA3 mRNA [1]): 0.98 ± 0.17; Primary Hepatocytes 4178 PCSK9 (fold change in mRNA expression) (PCSK9 mRNA): 0.66; Primary Stellate cells PNPLA3 (fold change in mRNA expression) (PNPLA3 mRNA [2]): 0.36; Relative PNPLA3 mRNA levels RQ (PNPLA3 mRNA [2]; 0.01 μM): 0.64; Relative PNPLA3 mRNA levels RQ (PNPLA3 mRNA [2]; 0.1 μM): 0.47; Relative PNPLA3 mRNA levels RQ (PNPLA3 mRNA [2]; 1 μM): 0.56; Relative PNPLA3 mRNA levels RQ (PNPLA3 mRNA [2]; 10 μM): 0.44; Primary Stellate cells COL1A1 (fold change in mRNA expression) (COL1A1 mRNA): 0.93; Relative COL1A1 mRNA levels RQ (COL1A1 mRNA; 0.01 μM): 1.07; Relative COL1A1 mRNA levels RQ (COL1A1 mRNA; 0.1 μM): 1.01; Relative COL1A1 mRNA levels RQ (COL1A1 mRNA; 1 μM): 1.12; Relative COL1A1 mRNA levels RQ (COL1A1 mRNA; 10 μM): 1.19; Relative PNPLA3 mRNA levels (PNPLA3 mRNA [3]): 0.31 ± 0.10

Q: Which results are given for `Cc1cccc(-c2nn3c(c2-c2ccnc4ccc(C(N)=O)cc24)CCC3)n1` [LY2157299 Galunisertib]?
A: mrna remaining at 10 µM (PNPLA3 mRNA [1]; read-out: PNPLA3 mRNA remaining after treatment compared to untreated cells, H Hep Donor-1, 10 uM): 50%; mrna remaining at 10 µM (PNPLA3 mRNA [1]; read-out: PNPLA3 mRNA remaining after treatment compared to untreated cells, H Hep Donor-2, 10 uM): 70%; mrna remaining at 10 µM (PNPLA3 mRNA [1]; read-out: PNPLA3 mRNA remaining after treatment compared to untreated cells, H Hep Donor-3, 10 uM): 80%; mrna remaining at 1 µM (PNPLA3 mRNA [1]; read-out: PNPLA3 mRNA remaining after treatment compared to untreated cells, H Hep Donor-4, 1 uM): 75%; mrna remaining at 10 µM (PNPLA3 mRNA [1]; read-out: PNPLA3 mRNA remaining after treatment compared to untreated cells, H Hep Donor-4, 10 uM): 50%; mrna remaining at 1 µM (PNPLA3 mRNA [1]; read-out: PNPLA3 mRNA remaining after treatment compared to untreated cells, H Hep Donor-5, 1 uM): 55%; mrna remaining at 10 µM (PNPLA3 mRNA [1]; read-out: PNPLA3 mRNA remaining after treatment compared to untreated cells, H Hep Donor-5, 10 uM): 50%; mrna remaining at 1 µM (PNPLA3 mRNA [2]; Human Stellate, 1 uM, read-out: PNPLA3 mRNA remaining after treatment compared to untreated cells): 65%; mrna remaining at 10 µM (PNPLA3 mRNA [2]; Human Stellate, 10 uM, read-out: PNPLA3 mRNA remaining after treatment compared to untreated cells): 100%; mrna remaining at 10 µM (PNPLA3 mRNA [3]; Hepatocyte, Mouse hepatocytes, 10 uM, read-out: PNPLA3 mRNA remaining after treatment compared to untreated cells): 102%

Q: Which “PNPLA3 mRNA remaining after treatment compared to untreated cells” value (PNPLA3 mRNA [1]; H Hep Donor-2, 10 uM) does the source give for `FC(F)(F)c1ccc(/C=C/c2nc(COc3ccc(CCCCn4ccnn4)cc3)co2)cc1` [Mubritinib (TAK 165)] here?
A: 0.39

Q: And the “PNPLA3 mRNA remaining after treatment compared to untreated cells” value (PNPLA3 mRNA [1]; H Hep Donor-3, 10 uM)?
A: 0.2

Q: What about the “PNPLA3 mRNA remaining after treatment compared to untreated cells” value (PNPLA3 mRNA [1]; H Hep Donor-4, 1 uM) of the same compound?
A: 0.55

Q: What about the “PNPLA3 mRNA remaining after treatment compared to untreated cells” value (PNPLA3 mRNA [1]; H Hep Donor-4, 10 uM) of the same compound?
A: 0.4

Q: What about the “PNPLA3 mRNA remaining after treatment compared to untreated cells” value (PNPLA3 mRNA [1]; H Hep Donor-5, 1 uM) of the same compound?
A: 0.6

Q: And the “PNPLA3 mRNA remaining after treatment compared to untreated cells” value (PNPLA3 mRNA [1]; H Hep Donor-5, 10 uM)?
A: 0.25

Q: What about the “PNPLA3 mRNA remaining after treatment compared to untreated cells” value (PNPLA3 mRNA [2]; Human Stellate, 1 uM) of the same compound?
A: 0.2

Q: And the “PNPLA3 mRNA remaining after treatment compared to untreated cells” value (PNPLA3 mRNA [2]; Human Stellate, 10 uM)?
A: 0.78

Q: What about the “PNPLA3 mRNA remaining after treatment compared to untreated cells” value (PNPLA3 mRNA [3]; Mouse hepatocytes, 1 uM) of the same compound?
A: 1.12

Q: What about the “PNPLA3 mRNA remaining after treatment compared to untreated cells” value (PNPLA3 mRNA [3]; Mouse hepatocytes, 10 uM) of the same compound?
A: 0.09

Q: For `COc1cccc2cc(-c3nc([C@H]4CC[C@H](C(=O)O)CC4)n4ncnc(N)c34)[nH]c12` [OSI-027/ASP7486], which “PNPLA3 mRNA remaining after treatment compared to untreated cells” value (PNPLA3 mRNA [1]; H Hep Donor-1, 1 uM (stated in cell)) is on record?
A: 0.3 (1 uM)

Q: What about the “PNPLA3 mRNA remaining after treatment compared to untreated cells” value (PNPLA3 mRNA [1]; H Hep Donor-2, 1 uM (stated in cell)) of the same compound?
A: 0.4 (1 uM)

Q: And the “PNPLA3 mRNA remaining after treatment compared to untreated cells” value (PNPLA3 mRNA [1]; H Hep Donor-3, 10 uM)?
A: 0.55

Q: And the “PNPLA3 mRNA remaining after treatment compared to untreated cells” value (PNPLA3 mRNA [1]; H Hep Donor-4, 1 uM)?
A: 0.6

Q: What about the “PNPLA3 mRNA remaining after treatment compared to untreated cells” value (PNPLA3 mRNA [1]; H Hep Donor-4, 10 uM) of the same compound?
A: 0.38

Q: What about the “PNPLA3 mRNA remaining after treatment compared to untreated cells” value (PNPLA3 mRNA [1]; H Hep Donor-5, 1 uM) of the same compound?
A: 0.5

Q: What about the “PNPLA3 mRNA remaining after treatment compared to untreated cells” value (PNPLA3 mRNA [1]; H Hep Donor-5, 10 uM) of the same compound?
A: 0.2

Q: What about the “PNPLA3 mRNA remaining after treatment compared to untreated cells” value (PNPLA3 mRNA [2]; Human Stellate, 1 uM) of the same compound?
A: 0.2

Q: What about the “PNPLA3 mRNA remaining after treatment compared to untreated cells” value (PNPLA3 mRNA [2]; Human Stellate, 10 uM) of the same compound?
A: 0.65

Q: And the “PNPLA3 mRNA remaining after treatment compared to untreated cells” value (PNPLA3 mRNA [3]; Mouse hepatocytes, 1 uM)?
A: 0.3

Q: And the “PNPLA3 mRNA remaining after treatment compared to untreated cells” value (PNPLA3 mRNA [3]; Mouse hepatocytes, 10 uM)?
A: 0.35
